Patent US11046680B1, “Heteroaryl-substituted triazoles as APJ receptor agonists” (priority 2016, dated 2021)

Target: human APJ receptor (Homo sapiens (Human), UniProt P35414)
Experiment: biochemical
Format: biochemical
Conditions: [35S]GTPγS binding, CHO membranes expressing human APJ receptor; read-out: Activity hAPJ SPA EC50 IP
Outline: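 Membranes of a stable CHO line carrying human APJ (pFLAG-CMV-3) were used in a GTPγS binding format; buffer GDP, MgCl2 and NaCl were optimized, and plates were read after 90 min at RT.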

human APJ receptor, sequence (P35414 whole entry): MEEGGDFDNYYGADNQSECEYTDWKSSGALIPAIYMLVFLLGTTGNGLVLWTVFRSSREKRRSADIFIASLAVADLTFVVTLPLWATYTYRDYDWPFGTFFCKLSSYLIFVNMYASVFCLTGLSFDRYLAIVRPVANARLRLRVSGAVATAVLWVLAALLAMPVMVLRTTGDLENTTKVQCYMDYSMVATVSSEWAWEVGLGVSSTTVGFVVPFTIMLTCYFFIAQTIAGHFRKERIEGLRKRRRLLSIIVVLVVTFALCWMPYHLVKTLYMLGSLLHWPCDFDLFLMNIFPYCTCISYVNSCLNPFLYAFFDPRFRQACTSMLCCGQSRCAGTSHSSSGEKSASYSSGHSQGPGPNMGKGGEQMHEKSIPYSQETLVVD

| SMILES | EC50 |
| --- | --- |
| COc1cccc(OC)c1-n1c(NS(=O)(=O)[C@@H](C)[C@H](OC)c2ncc(C)cn2)nnc1-c1ncnc2cc[nH]c12 [Example 435.0, (1R,2S)-N-(4-(2,6-dimethoxyphenyl)-5-(5H-pyrrolo[3,2-d]pyrimidin-4-yl)-4H-1,2,4-triazol-3-yl)-1-methoxy-1-(5-methylpyrimidin-2-yl)propane-2-sulfonamide] | 180 nM |
| COc1cccc(OC)c1-n1c(NS(=O)(=O)[C@H](C)[C@H](C)c2ncc(F)cn2)nnc1-c1nc(C)cs1 (single isomer, unassigned) [Example 165.0] | 110 nM |
| Cc1cnc([C@@H](C)[C@H](C)S(=O)(=O)Nc2nnc(-c3noc4ccccc34)n2C2CCOCC2)nc1 [Example 84.0, (2S,3R)-N-(5-(benzo[d]isoxazol-3-yl)-4-(tetrahydro-2H-pyran-4-yl)-4H-1,2,4-triazol-3-yl)-3-(5-methylpyrimidin-2-yl)butane-2-sulfonamide] | 260 nM |
| O=S(=O)(Cc1ccc(Cl)cc1)Nc1nnc(-c2cccs2)n1-c1ccccc1OC(F)F [Example 237.0, 1-(4-chlorophenyl)-N-(4-(2-(difluoromethoxy)phenyl)-5-(2-thiophenyl)-4H-1,2,4-triazol-3-yl)methanesulfonamide] | > 12500 nM |
| COc1cnc([C@@H](C)[C@H](C)S(=O)(=O)Nc2nnc(-c3cnn4c3CCC4)n2-c2c(OC)cccc2OC)nc1 [Example 485.0, (2S,3R)-N-(5-(5,6-dihydro-4H-pyrrolo[1,2-b]pyrazol-3-yl)-4-(2,6-dimethoxyphenyl)-4H-1,2,4-triazol-3-yl)-3-(5-methoxypyrimidin-2-yl)butane-2-sulfonamide] | 0.3 nM |
| CNC(=O)n1ccc(-c2nnc(NS(=O)(=O)[C@@H](C)Cc3ncc(F)cn3)n2-c2c(OC)cccc2OC)n1 (racemic) [Example 72.0, (R)-3-(4-(2,6-dimethoxyphenyl)-5-(2-(5-fluoropyrimidin-2-yl)-1-methylethylsulfonamido)-4H-1,2,4-triazol-3-yl)-N-methyl-1H-pyrazole-1-carboxamide (S)-3-(4-(2,6-dimethoxyphenyl)-5-(2-(5-fluoropyrimidin-2-yl)-1-methylethylsulfonamido)-4H-1,2,4-triazol-3-yl)-N-methyl-1H-pyrazole-1-carboxamide] | 41 nM |
| COc1cccc(OC)c1-n1c(NS(=O)(=O)[C@@H](C)[C@H](C)c2ncc(Cl)cn2)nnc1-c1ccn(C(F)F)n1 [Example 222.0, (2S,3R)-3-(5-chloro-2-pyrimidinyl)-N-(5-(1-(difluoromethyl)-1H-pyrazol-3-yl)-4-(2,6-dimethoxyphenyl)-4H-1,2,4-triazol-3-yl)-2-butanesulfonamide] | 0.11 nM |
| CCO[C@H](c1ncc(Cl)cn1)[C@H](C)S(=O)(=O)Nc1nnc(-c2ccn(CC)n2)n1-c1c(OC)cccc1OC [Example 394.0, (1R,2S)-1-(5-chloropyrimidin-2-yl)-N-(4-(2,6-dimethoxyphenyl)-5-(1-ethyl-1H-pyrazol-3-yl)-4H-1,2,4-triazol-3-yl)-1-ethoxypropane-2-sulfonamide] | 0.54 nM |
| COc1cccc(OC)c1-n1c(NS(=O)(=O)[C@@H](C)[C@H](OC)c2ncc(Cl)cn2)nnc1-c1ccn(C(F)F)n1 [Example 207.0, (1R,2S)-1-(5-chloro-2-pyrimidinyl)-N-(5-(1-(difluoromethyl)-1H-pyrazol-3-yl)-4-(2,6-dimethoxyphenyl)-4H-1,2,4-triazol-3-yl)-1-methoxy-2-propanesulfonamide] | 0.13 nM |
| COc1cccc(OC)c1-n1c(NS(=O)(=O)[C@@H](C)Cc2ncc(C)cn2)nnc1-c1nc(C)cs1 (single isomer, unassigned) [Example 8.0, (2S)-N-(4-(2,6-dimethoxyphenyl)-5-(4-methyl-1,3-thiazol-2-yl)-4H-1,2,4-triazol-3-yl)-1-(5-methyl-2-pyrimidinyl)-2-propanesulfonamide or (2R)-N-(4-(2,6-dimethoxyphenyl)-5-(4-methyl-1,3-thiazol-2-yl)-4H-1,2,4-triazol-3-yl)-1-(5-methyl-2-pyrimidinyl)-2-propanesulfonamide] | 0.75 nM |
| COc1cccc(OC)c1-n1c(NS(=O)(=O)[C@@H](C)[C@H](OC)c2ncc(Cl)cn2)nnc1-c1cnn(C)c1C(C)C [Example 501.0, (1R,2S)-1-(5-chloropyrimidin-2-yl)-N-(4-(2,6-dimethoxyphenyl)-5-(5-isopropyl-1-methyl-1H-pyrazol-4-yl)-4H-1,2,4-triazol-3-yl)-1-methoxypropane-2-sulfonamide] | 9.3 nM |
| COc1cccc(OC)c1-n1c(NS(=O)(=O)[C@@H](C)[C@H](OC)c2ncc(Cl)cn2)nnc1-c1c(C)nc2ccccn12 [Example 428.0, (1R,25)-1-(5-chloropyrimidin-2-yl)-N-(4-(2,6-dimethoxyphenyl)-5-(2-methylimidazo[1,2-a]pyridin-3-yl)-4H-1,2,4-triazol-3-yl)-1-methoxypropane-2-sulfonamide] | 120 nM |
| COc1cccc(OC)c1-n1c(NS(=O)(=O)[C@@H](C)[C@H](OC)c2ncc(C)cn2)nnc1-c1ncc(C)s1 [Example 331.0, (1R,2S)-N-(4-(2,6-Dimethoxyphenyl)-5-(5-methyl-1,3-thiazol-2-yl)-4H-1,2,4-triazol-3-yl)-1-methoxy-1-(5-methyl-2-pyrimidinyl)-2-propanesulfonamide] | 0.98 nM |
| COc1cccc(OC)c1-n1c(NS(=O)(=O)CCc2ccc(Cl)cc2)nnc1-c1cncs1 [Example 137.0, 2-(4-chlorophenyl)-N-(4-(2,6-dimethoxyphenyl)-5-(thiazol-5-yl)-4H-1,2,4-triazol-3-yl)ethanesulfonamide] | 30 nM |
| COc1cccc(OC)c1-n1c(NS(=O)(=O)[C@@H](C)[C@H](C)c2ncc(F)cn2)nnc1-c1ccn(C(F)F)n1 [Example 194.0, (2S,3R)-N-(5-(1-(difluoromethyl)-1H-pyrazol-3-yl)-4-(2,6-dimethoxyphenyl)-4H-1,2,4-triazol-3-yl)-3-(5-fluoro-2-pyrimidinyl)-2-butanesulfonamide] | 0.48 nM |
| COc1cccc(OC)c1-n1c(NS(=O)(=O)[C@@H](C)[C@H](OC)c2ncc(C)cn2)nnc1-c1n[nH]c2ccccc12 [Example 411.0] | 58 nM |
| CO[C@H]1CCC[C@@H](OC)C1n1c(NS(=O)(=O)[C@@H](C)[C@H](C)c2ncc(Cl)cn2)nnc1-c1cnn2ccccc12 (stereo partly drawn) [Example 442.0, (2S,3R)-3-(5-chloropyrimidin-2-yl)-N-(4-((1r,2R,6S)-2,6-dimethoxycyclohexyl)-5-(pyrazolo[1,5-a]pyridin-3-yl)-4H-1,2,4-triazol-3-yl)butane-2-sulfonamide] | 190 nM |
| COc1cnc([C@@H](C)[C@H](C)S(=O)(=O)Nc2nnc(-c3ccn(C)n3)n2-c2c(OC)cccc2OC)nc1 [Example 295.0, (2S,3R)-N-(4-(2,6-dimethoxyphenyl)-5-(1-methyl-1H-pyrazol-3-yl)-4H-1,2,4-triazol-3-yl)-3-(5-methoxy-2-pyrimidinyl)-2-butanesulfonamide] | 0.4 nM |
| COc1cccc(OC)c1-n1c(NS(=O)(=O)[C@H](C)Cc2ncc(F)cn2)nnc1-c1nc(C)cs1 (single isomer, unassigned) [Example 101.0, (R)-N-(4-(2,6-Dimethoxyphenyl)-5-(4-methylthiazol-2-yl)-4H-1,2,4-triazol-3-yl)-1-(5-fluoropyrimidin-2-yl)propane-2-sulfonamide or (S)-N-(4-(2,6-dimethoxyphenyl)-5-(4-methylthiazol-2-yl)-4H-1,2,4-triazol-3-yl)-1-(5-fluoropyrimidin-2-yl)propane-2-sulfonamide] | 0.7 nM |
| COc1cccc(OC)c1-n1c(NS(=O)(=O)CCc2ccc(F)cc2C#N)nnc1-c1csc(C)n1 [Example 148.0, 2-(2-cyano-4-fluorophenyl)-N-(4-(2,6-dimethoxyphenyl)-5-(2-methylthiazol-4-yl)-4H-1,2,4-triazol-3-yl)ethanesulfonamide] | 31 nM |
| CCc1csc(-c2nnc(NS(=O)(=O)[C@H](C)Cc3ncc(F)cn3)n2-c2c(OC)cccc2OC)n1 (single isomer, unassigned) [Example 105.0, (R)-N-(4-(2,6-dimethoxyphenyl)-5-(4-ethylthiazol-2-yl)-4H-1,2,4-triazol-3-yl)-1-(5-fluoropyrimidin-2-yl)propane-2-sulfonamide or (S)-N-(4-(2,6-dimethoxyphenyl)-5-(4-ethylthiazol-2-yl)-4H-1,2,4-triazol-3-yl)-1-(5-fluoropyrimidin-2-yl)propane-2-sulfonamide] | 1.4 nM |
| COc1ncnc(OC)c1-n1c(NS(=O)(=O)[C@@H](C)[C@@H](OC(C)C)c2cnc(C)cn2)nnc1-c1ccn(C)n1 [Example 461.0, (1S,2S)-N-(4-(4,6-dimethoxy-5-pyrimidinyl)-5-(1-methyl-1H-pyrazol-3-yl)-4H-1,2,4-triazol-3-yl)-1-(5-methyl-2-pyrazinyl)-1-(2-propanyloxy)-2-propanesulfonamide] | 9 nM |
| CCc1csc(-c2nnc(NS(=O)(=O)[C@H](C)Cc3ncc(F)cn3)n2-c2c(OC)cccc2OC)n1 [Example 106.0] | 21 nM |
| CCO[C@@H](c1ncc(Cl)cn1)[C@H](C)S(=O)(=O)Nc1nnc(-c2ccn(C)n2)n1-c1c(OC)cccc1OC (single isomer, unassigned) [Example 352.0, (1S,2S)-1-(5-chloropyrimidin-2-yl)-N-(4-(2,6-dimethoxyphenyl)-5-(1-methyl-1H-pyrazol-3-yl)-4H-1,2,4-triazol-3-yl)-1-ethoxypropane-2-sulfonamide or (1R,2R)-1-(5-chloropyrimidin-2-yl)-N-(4-(2,6-dimethoxyphenyl)-5-(1-methyl-1H-pyrazol-3-yl)-4H-1,2,4-triazol-3-yl)-1-ethoxypropane-2-sulfonamide] | 35 nM |
| CCc1onc(-c2nnc(NS(=O)(=O)[C@@H](C)[C@H](OC)c3ncc(Cl)cn3)n2-c2c(OC)cccc2OC)c1C [Example 519.0] | 0.32 nM |
| COc1cccc(OC)c1-n1c(NS(=O)(=O)[C@@H](C)[C@H](C)c2ncc(F)cn2)nnc1-c1cnn2c1CCC2 [Example 479.0, (2S,3R)-N-(5-(5,6-dihydro-4H-pyrrolo[1,2-b]pyrazol-3-yl)-4-(2,6-dimethoxyphenyl)-4H-1,2,4-triazol-3-yl)-3-(5-fluoropyrimidin-2-yl)butane-2-sulfonamide] | 0.56 nM |
